Measured values as given in patent US20170112732A1, “ENCAPSULATION OF ORAL CARE ACTIVE AGENTS” (KONINKLIJKE PHILIPS N.V., priority 2014, published 2017).
Structures can show the parent of a compound that is named as a salt.

Assay: Determination of ethyl formate solubility in paraffin oil (GC-FID)
Assay type: physicochemical
Experimental: 12 mL of ethyl formate (0.917 g/cm^3) were added to 18 mL of liquid paraffin (density, 0.830 g/cm^3) in a glass bottle. The bottle was then closed with butyl rubber stopper and aluminium crimp seal and seal with a hand crimper before vigorously mixing the system with a vortex for 2 min. The bottle containing the mixture was immersed in a temperature-controlled jacketed beaker for 24 h and to allow the formation of two distinct layers, an upper layer consisting of ethyl formate and Liquid paraffin and the lower layer with only ethyl formate. Samples were withdrawn from the upper layer with a needle, filtered and analysed using a gas chromatography with flame ionisation detector (GC-FID) under the conditions presented in table 2. The quantity of ethyl formate in the mixture was inferred from the calibration curve obtained with different concentration of ethyl formate diluted with anhydrous ethanol.

CCOC=O [Ethyl formate, ethyl formate]
Ethyl formate solubility in liquid paraffin (5 ° C.): 13.4 % v/v
Ethyl formate solubility in liquid paraffin (10 ° C.): 16.3 % v/v
Ethyl formate solubility in liquid paraffin (20 ° C.): 26.8 % v/v
Ethyl formate solubility in liquid paraffin (30 ° C.): 38.9 % v/v
